The structures appear in SMILES notation. ≈ marks a conversion by molar mass, not a printed value.

The experiment has as its system Mycobacterium avium subsp. paratuberculosis (CIT03). As to the kind of experiment: In vitro antimycobacterial evaluation (alamarBlue MIC). The note with it: 264 h, M. avium paratuberculosis CIT03, 11 days, 37 °C. Type of experiment: cell-based. The method, boiled down: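 Clinical isolate CIT03 in Middlebrook broth with OADC and mycobactin J, inoculum McFarland No. 1 diluted 1:20, exposed to compound at 1,000 to 8 µg/mL final in duplicate, 37 °C for 11 days. alamarBlue added, read at 570/600 nm after 24 h; MIC is the lowest concentration preventing blue-to-pink change.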
A word on the MIC: it is the smallest concentration in the dilution series that meets the test's criterion for growth inhibition. The compound `O=C(Nc1ccccc1Cl)c1c(O)ccc2ccccc12` [Compound 5a, N-(2-chlorophenyl)-2-hydroxynaphthalene-1-carboxamide] gave an MIC of 202 µM (≈ 60.1 µg/mL).

`O=C(Nc1ccccc1C(F)(F)F)c1c(O)ccc2ccccc12` [Compound 7a, 2-Hydroxy-N-(2-trifluoromethylphenyl)naphthalene-1-carboxamide]: the MIC came out at 377 µM (≈ 125 µg/mL).

`O=C(Nc1cccc(C(F)(F)F)c1)c1c(O)ccc2ccccc12` [Compound 7b, 2-Hydroxy-N-(3-trifluoromethylphenyl)naphthalene-1-carboxamide] yielded an MIC of 731 µM (≈ 242 µg/mL). Against the preceding compound, the MIC is about 1.9-fold higher.
